In patent US12662489B2 (Sitryx Therapeutics Limited, priority 2023, dated 2026):

Tests used:
[1] = target: T1, MTHFD1 recombinant human enzyme (Homo sapiens, UniProt P11586); experiment: MTHFD1 inhibition assay (NAD(P)H-Glo luminescence); settings: MTHFD1 IC50, recombinant human enzyme 200 nM, NADP, band
T1 sequence (P11586 2-291 limits assumed): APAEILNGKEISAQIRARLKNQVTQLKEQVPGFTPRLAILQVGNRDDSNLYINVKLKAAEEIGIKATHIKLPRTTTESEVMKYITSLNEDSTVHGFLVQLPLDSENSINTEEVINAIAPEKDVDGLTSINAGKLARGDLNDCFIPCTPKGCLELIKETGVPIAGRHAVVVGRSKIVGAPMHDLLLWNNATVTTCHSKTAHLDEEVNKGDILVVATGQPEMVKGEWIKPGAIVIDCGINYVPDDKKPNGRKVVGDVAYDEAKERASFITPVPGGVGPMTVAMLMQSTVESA

[2] = target: T2, MTHFD2 recombinant human enzyme (Homo sapiens, UniProt P13995); experiment: MTHFD2 inhibition assay (NAD(P)H-Glo luminescence)
T2 sequence (P13995 36-350): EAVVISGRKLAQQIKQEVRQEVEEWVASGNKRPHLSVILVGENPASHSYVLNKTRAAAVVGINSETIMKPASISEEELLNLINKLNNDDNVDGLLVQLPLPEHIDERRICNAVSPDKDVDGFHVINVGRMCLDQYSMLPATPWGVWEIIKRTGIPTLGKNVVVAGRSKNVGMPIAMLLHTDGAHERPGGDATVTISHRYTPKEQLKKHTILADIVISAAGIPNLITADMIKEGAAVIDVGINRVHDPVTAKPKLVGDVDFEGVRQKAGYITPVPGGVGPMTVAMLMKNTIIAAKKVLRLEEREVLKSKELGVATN

[3] = selectivity of MTHFD2 inhibition over MTHFD1, band

IC50 [1]	IC50 [2]	MTHFD1/MTHFD2 IC50 ratio [2, 3]	MTHFD1/MTHFD2 IC50 ratio ([2]; mean value after increased number of repeats, band)	Compound
0.1 to 1 µM	0.01 to 0.1 µM	J (>30)		COC[C@H]1CN(c2cc(C)c3c4c(c(=O)oc3c2C)CN(C(=O)c2cc(N(C)C)c(C(=O)NS(=O)(=O)N3CCC(OC)CC3)cc2F)CC4)CCN1C [Example 289, (R)-2-(dimethylamino)-5-fluoro-4-(8-(3-(methoxymethyl)-4-methylpiperazin-1-yl)-7,10-dimethyl-5-oxo-1,3,4,5-tetrahydro-2H-chromeno[3,4-c]pyridine-3-carbonyl)-N-((4-methoxypiperidin-1-yl)sulfonyl)benzamide]
0.01 to 0.1 µM	0.001 to 0.01 µM	G (^ 3 to 9.0)	H* (>9.0 to 30)	COC[C@H]1CN(c2cc(C)c3c4c(c(=O)oc3c2C)CN(C(=O)c2ccc(C(=O)NS(=O)(=O)C3(C)CC3)c(N(C)C3CC3)c2)CC4)CCN1C [Example 83, (R)-2-(cyclopropyl(methyl)amino)-4-(8-(3-(methoxymethyl)-4-methylpiperazin-1-yl)-7,10-dimethyl-5-oxo-1,3,4,5-tetrahydro-2H-chromeno[3,4-c]pyridine-3-carbonyl)-N-((1-methylcyclopropyl)sulfonyl)benzamide]
0.1 to 1 µM	0.01 to 0.1 µM	H (>9.0 to 30)		COC[C@H]1CN(c2cc(Cl)c3c4c(c(=O)oc3c2C)CN(C(=O)c2cc(N(C)C)c(C(=O)NS(=O)(=O)N3CC[C@@H](OC)C3)cc2F)CC4)CCN1C [Example 285, 4-(10-chloro-8-((R)-3-(methoxymethyl)-4-methylpiperazin-1-yl)-7-methyl-5-oxo-1,3,4,5-tetrahydro-2H-chromeno[3,4-c]pyridine-3-carbonyl)-2-(dimethylamino)-5-fluoro-N-(((R)-3-methoxypyrrolidin-1-yl)sulfonyl)benzamide]
0.1 to 1 µM	0.01 to 0.1 µM	J (>30)		COC[C@H]1CN(c2cc(C)c3c4c(c(=O)oc3c2C)CN(C(=O)c2cc(N(C)C)c(C(=O)NS(=O)(=O)N3CCC[C@@H](OC)C3)cc2F)CC4)CCN1C [Example 286, 2-(dimethylamino)-5-fluoro-4-(8-((R)-3-(methoxymethyl)-4-methylpiperazin-1-yl)-7,10-dimethyl-5-oxo-1,3,4,5-tetrahydro-2H-chromeno[3,4-c]pyridine-3-carbonyl)-N-(((R)-3-methoxypiperidin-1-yl)sulfonyl)benzamide]

Compound	IC50 [1]	IC50 [2]	MTHFD1/MTHFD2 IC50 ratio [2, 3]	MTHFD1/MTHFD2 IC50 ratio ([2]; mean value after increased number of repeats, band)
COC[C@H]1CN(c2ccc3c4c(c(=O)oc3c2Cl)CN(C(=O)c2ccc(C(=O)NS(=O)(=O)N(C)C)c(OC3CCC3)c2F)CC4)CCN1C [Example 52, (R)-4-(7-chloro-8-(3-(methoxymethyl)-4-methylpiperazin-1-yl)-5-oxo-1,3,4,5-tetrahydro-2H-chromeno[3,4-c]pyridine-3-carbonyl)-2-cyclobutoxy-N-(N,N-dimethylsulfamoyl)-3-fluorobenzamide]	0.001 to 0.01 µM	0.001 to 0.01 µM		
COC[C@H]1CN(c2ccc3c4c(c(=O)oc3c2)CN(C(=O)c2cc(N(C)C)c(C(=O)NS(=O)(=O)N3C5CCC3CC5)cc2F)CC4)CCN1C [Example 191, (R)-N-((7-azabicyclo[2.2.1]heptan-7-yl)sulfonyl)-2-(dimethylamino)-5-fluoro-4-(8-(3-(methoxymethyl)-4-methylpiperazin-1-yl)-5-oxo-1,3,4,5-tetrahydro-2H-chromeno[3,4-c]pyridine-3-carbonyl)benzamide]	> 5 µM	0.1 to 1 µM	G (^ 3 to 9.0)	
COC[C@H]1CN(c2cc(C)c3c4c(c(=O)oc3c2C)CN(C(=O)c2ccc(C(=O)NS(=O)(=O)C3(C)CC3)c(OC3CCC3)c2F)CC4)CCN1C [Example 41, (R)-2-cyclobutoxy-3-fluoro-4-(8-(3-(methoxymethyl)-4-methylpiperazin-1-yl)-7,10-dimethyl-5-oxo-1,3,4,5-tetrahydro-2H-chromeno[3,4-c]pyridine-3-carbonyl)-N-((1-methylcyclopropyl)sulfonyl)benzamide]	0.001 to 0.01 µM	0.001 to 0.01 µM	G (^ 3 to 9.0)	
